# ChEMBL document CHEMBL4433258, “Structure-activity relationships study of neolamellarin A and its analogues as hypoxia inducible factor-1 (HIF-1) inhibitors” (Bioorg Med Chem Lett, 2019)
# Assays:
# [1] = Inhibition of HIF-1 in human HeLa cells transfected with CMV driven renilla luciferase reporter gene incubated for 1 hr under normoxic condition and 12 hrs under hypoxia condition by HRE-based dual luciferase reporter gene assay; format: cell-based
# [2] = Cytotoxicity against human HeLa cells assessed as growth inhibition incubated for 60 hrs under normoxic condition by MTT assay; format: cell-based
structure (smiles),measurement,setting,value
COc1ccc(-c2cn(C(=O)C(OC)c3ccc(OC)cc3)cc2-c2ccc(OC)cc2)cc1 (stereo unspecified),IC50,[1],> 50 µM
same,GI50 at 60 h,[2],> 100 µM
O=C(c1ccccc1)n1cc(-c2ccccc2)c(-c2ccccc2)c1,IC50,[1],16 µM
same,GI50 at 60 h,[2],67.1 µM
O=C(/C=C/c1ccc(O)cc1)n1cc(-c2ccc(O)cc2)c(-c2ccc(O)cc2)c1,IC50,[1],16.6 µM
same,GI50 at 60 h,[2],27.3 µM
O=C(c1ccc(O)cc1)n1cc(-c2ccc(O)cc2)c(-c2ccc(O)cc2)c1,IC50,[1],18.8 µM
same,GI50 at 60 h,[2],76 µM
O=C(CCc1ccc(O)cc1)n1cc(-c2ccc(O)cc2)c(-c2ccc(O)cc2)c1,IC50,[1],14.7 µM
same,GI50 at 60 h,[2],51.5 µM
COc1ccc(-c2cn(C(=O)c3ccccc3)cc2-c2ccc(OC)cc2)cc1,IC50,[1],14.6 µM
same,GI50 at 60 h,[2],> 100 µM
COc1ccc(CC(=O)n2cc(-c3ccc(OC)cc3)c(-c3ccc(OC)cc3)c2)cc1,IC50,[1],22.5 µM
same,GI50 at 60 h,[2],> 100 µM
O=C(Cc1ccc(O)cc1)n1cc(-c2ccc(O)cc2)c(-c2ccc(O)cc2)c1 [NEOLAMELLARIN A],IC50,[1],10.8 µM
same,GI50 at 60 h,[2],59.5 µM
COc1ccc(-c2cn(C(=O)C(O)c3ccc(OC)cc3)cc2-c2ccc(OC)cc2)cc1 (stereo unspecified),IC50,[1],11.9 µM
same,GI50 at 60 h,[2],44.2 µM
COc1ccc(C(=O)n2cc(-c3ccc(OC)cc3)c(-c3ccc(OC)cc3)c2)cc1,IC50,[1],24.4 µM
same,GI50 at 60 h,[2],> 100 µM
COc1ccc(/C=C/C(=O)n2cc(-c3ccc(OC)cc3)c(-c3ccc(OC)cc3)c2)cc1,IC50,[1],> 100 µM
same,GI50 at 60 h,[2],> 100 µM
COc1ccc(CCC(=O)n2cc(-c3ccc(OC)cc3)c(-c3ccc(OC)cc3)c2)cc1,IC50,[1],26.8 µM
same,GI50 at 60 h,[2],> 100 µM
O=C(c1ccccc1)n1cc(-c2ccc(O)cc2)c(-c2ccc(O)cc2)c1,IC50,[1],16.8 µM
same,GI50 at 60 h,[2],32.9 µM
